In patent US20090318468A1, “PYRAZOLE COMPOUNDS 436” (AstraZeneca AB, priority 2008, published 2009):
“And” between values parts separate entries of the source, which are not always exact repeats. Equal entries are not always repeated.

Molecular target: FGFR4 (Homo sapiens, UniProt P22455)
Experiment: Cell FGFR4 (ECHO) Assay: inhibition of transiently expressed FGFR4 phosphorylation in Cos-1 cells
Assay type: cell-based
Set-up: expressed in transfected cells; host or cells: Cos-1
Conditions: Cos-1 cells transiently expressing FGFR4, 1 hour incubation; read-out: IC50 (inhibition of phosphorylated FGFR4)
Excerpt: Cell based inhibition of transiently expressed FGFR4 phosphorylation via use of ECHO technology (measured using phospho-specific primary and fluorescent secondary antibodies).
This assay is designed to detect inhibitors of transiently expressed FGFR4 phosphorylation by antibody staining of fixed cells detected using ArrayScan technology. Cos-1 cells were routinely passaged in DMEM (Gibco BRL, 41966) plus 3% foetal calf serum (FCS), 1% L-glutamine (Gibco BRL, 25030) to a confluence of 80%. To undertake the assay, Cos-1 cells were harvested at 90-95% confluence for cell transfection. For each 96-well plate, 24 μL Lipofectamine 2000 was added to 809 μL OptiMEM and incubated at room temperature for 5 minutes. For each 96 well plate, 20 μg 3′ FLAG tagged FGFR4/pcDNA3.1 (MSD 6273) was diluted with OptiMEM to a total volume of 833 μL. Equal volumes of DNA and Lipofectamine 2000 were combined (DNA:Lipid=1:1.2 ratio) and incubated at room temperature for 20 minutes.
The harvested Cos-1 cells are counted using a coulter counter and diluted further with 1% FCS/DMEM to 1.2×10^5 cells/mL. For each 96-well, 8.33 mL cells were required. […]
Media was removed from the wells using vacuum aspiration; cells were fixed by adding 50 μL of 100% methanol to each well and incubated at room temperature for 20 minutes. […] The plates were read on an Arrayscan (Cellomics). […]

FGFR4, sequence (P22455 22-802): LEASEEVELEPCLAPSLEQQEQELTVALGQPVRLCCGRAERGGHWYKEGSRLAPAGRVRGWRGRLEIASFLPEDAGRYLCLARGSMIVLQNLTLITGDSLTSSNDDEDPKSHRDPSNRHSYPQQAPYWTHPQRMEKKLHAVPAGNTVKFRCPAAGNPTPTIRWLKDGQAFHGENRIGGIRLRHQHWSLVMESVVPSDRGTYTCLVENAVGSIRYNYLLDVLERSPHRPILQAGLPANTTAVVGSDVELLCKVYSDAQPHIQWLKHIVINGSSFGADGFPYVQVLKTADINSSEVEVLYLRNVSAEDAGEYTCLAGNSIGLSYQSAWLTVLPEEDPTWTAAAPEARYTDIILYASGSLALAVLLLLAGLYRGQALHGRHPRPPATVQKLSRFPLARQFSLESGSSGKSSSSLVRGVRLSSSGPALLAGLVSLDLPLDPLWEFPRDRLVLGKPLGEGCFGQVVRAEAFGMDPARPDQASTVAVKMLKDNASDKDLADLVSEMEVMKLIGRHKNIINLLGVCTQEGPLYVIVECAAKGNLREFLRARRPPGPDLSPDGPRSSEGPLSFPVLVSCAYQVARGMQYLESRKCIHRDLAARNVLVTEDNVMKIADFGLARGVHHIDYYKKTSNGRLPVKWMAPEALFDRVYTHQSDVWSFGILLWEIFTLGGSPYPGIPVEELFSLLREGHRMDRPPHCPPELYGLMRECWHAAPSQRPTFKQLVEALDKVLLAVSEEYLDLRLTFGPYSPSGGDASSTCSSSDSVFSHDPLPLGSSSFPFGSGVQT

- IC50: 29 nM and 33 nM and 45 nM and 28 nM
SMILES: COc1cc(CCc2cc(NC(=O)c3ccc(N4CCN(C)[C@H](C)C4)cc3)[nH]n2)cc(OC)c1 [Example 1b, (R)—N-(3-(3,5-Dimethoxyphenethyl)-1H-pyrazol-5-yl)-4-(3,4-dimethylpiperazin-1-yl)benzamide]
